Assay results: patent US12295964B2, “Treating pain associated with chemotherapy-induced peripheral neuropathy” (MEDICON PHARMACEUTICALS, INC., priority 2021, dated 2025)
“And” between values parts separate entries of the source, which are not always exact repeats. Identical values can stand only once. Like-named read-outs stand apart in the source and are kept apart here.

Assays:
[1] = tested on: paclitaxel-induced CIPN in C57/BL mice; assay: Prevention of neuropathic pain in paclitaxel mouse model of CIPN, paw withdrawal threshold (von Frey); type: in vivo; details: day 6 after first paclitaxel (10 mg/kg ip daily x5); PS 8% hydrogel topically to both hind paws 3 times a day for 7 days, started 2 days before paclitaxel
Description: In order to establish CIPN, paclitaxel is administered at 10 mg/kg intraperitoneally into C57/BL mice. […] This dosing regimen of paclitaxel produces pain associated with CIPN with time courses that are similar to those of pain after paclitaxel administration in cancer patients.
The first doses were administered 2 days prior to the first administration of paclitaxel.
In particular, a simplified up-down method for estimating paw withdrawal threshold (PWT) using von Frey filaments was used (as described in Bonin et al., Molecular Pain (2014); 10(26):1-10)). The results of the PWT test are expressed as force applied (gm).

[2] = tested on: paclitaxel-induced CIPN in mice; assay: Cold allodynia (acetone test) in paclitaxel-induced CIPN; type: in vivo, mouse
Description: For cold allodynia, mice with paclitaxel-induced CIPN were treated with PS 5% or vehicle for 15 days after the induction of CIPN. The acetone test was used. Briefly, acetone was applied onto the plantar surface of each hind paw. The time each mouse spent licking, lifting, and/or shaking the hind paw recorded over 60 seconds was the score for cold allodynia. Measurements were performed on day-8 (before the first paclitaxel injection), the day of starting treatment (day 0) and then on day 15.

[3] = tested on: paclitaxel-induced CIPN in C57BL/6J mice; assay: Treatment of paclitaxel-induced CIPN, mechanical allodynia (von Frey test)
Description: Adult male C57BL/6J mice, 8 weeks of age at the beginning of the experiments and weighing 20-30 g, were purchased from The Jackson Laboratory (Bar Harbor, ME). Mice were housed in an AAALAC-accredited facility in groups of four. Food and water were available ad libitum. The mice in each cage were randomly allocated to treatment groups. All studies were conducted by experimenters blinded to the identity of the treatment groups. Experiments were performed during the light cycle (7:00 am to 7:00 pm) and animals were euthanized with CO2 asphyxiation. Studies were approved by the relevant Institutional Animal Care and Use Committee and followed the National Institutes of Health Guidelines for the Care and Use of Laboratory Animals. Animal studies are reported in compliance with the ARRIVE guidelines.
CIPN was induced in mice with three different chemotherapeutic compounds using established protocols (Carozzi et al., Exp Neurol (2010); 226:301-309; Currie et al., PLOS Biol (2019); 17:e3000243; Eldridge et al., Toxicol Pathol (2020); 48:190-201). Each of the three chemotherapeutic compounds were prepared and dosed as follows. • Paclitaxel: paclitaxel (purchased from MilliporeSigma (St. Louis, MO)) was dissolved in a mixture of 1 volume ethanol/1 volume Cremophor EL (EMD Millipore Corp, Burlington, MA)/18 volumes distilled water. Paclitaxel was administered as four intraperitoneal injections of 8 mg/kg paclitaxel (in a volume of 1 ml/100 g body weight) every other day, resulting in a cumulative dose of 32 mg/kg. • Oxaliplatin: Oxaliplatin was dissolved in ddH2O.
Mechanical allodynia was measured at the time points recorded in the figures.
Mechanical allodynia thresholds were determined using von Frey filaments according to an established method (Chaplan et al., J Neurosci Methods (1994); 53:55-63; Bagdas et al., Biochem Pharmacol (2015); 97:590-600). Briefly, mice were placed in a quiet room for 30 min and then were put in a Plexiglas cage with mesh metal flooring and allowed to acclimatise for 30 min before testing. A series of calibrated von Frey filaments (Stoelting, Wood Dale, IL) with incremental stiffness were applied perpendicularly to the paw with sufficient force to cause slight bending and held 2-3 s. This process was repeated at each level of stiffness 5 times, a few seconds apart. Paw withdrawn, licking or shaking were considered positive responses. The mechanical threshold, expressed as g, indicates the force of the von Frey filament to which the animal reacted.
Results are expressed as mean±SEM. […] Analysis of variance (ANOVA) tests were conducted and followed by the Bonferroni post hoc test. Differences were determined to be significant at P<0.05.

[4] = tested on: paclitaxel-induced CIPN in C57BL/6J mice; assay: Prevention of paclitaxel-induced CIPN pain, mechanical allodynia (von Frey test); details: for mechanical allodynia score, mean±SEM: day 10, PS 8% ointment to hind paws started 2 days before first paclitaxel (8 mg/kg ip every other day x4)
Description: In the prevention study depicted in FIG. 8, three of the four study groups of mice were treated with paclitaxel (one injection every other day for a total of four) while the fourth group received the solvent alone, serving as control.

[5] = tested on: paclitaxel-induced CIPN in C57/BL/6J mice; assay: Comparison with sulindac, lidocaine and pregabalin in paclitaxel CIPN, mechanical allodynia (PWT, von Frey)
[6] = PS and metabolites in proximal and distal half of the sciatic nerve of mice with paclitaxel-induced PN; type: in vivo, mouse; details: for concentration at 30 min: mean ± SEM
Description: In a separate experiment we studied 8 mice with paclitaxel-induced PN treated with PS 8% ointment 3×/d for 2 wks. Mice were euthanized as above 30 minutes after the last dose of PS. From these mice we harvested both sciatic nerves dividing each into proximal and distal halves, and combined the corresponding halves of every two animals for assay of drug levels.

[7] = Pharmacokinetics and biodistribution of topical PS in normal mice; type: in vivo, mouse; details: for Cmax: read-out: Cmax, μM mean ± SEM
Description: PS 8% ointment was applied topically to each hind paw (50 μl per paw) with gentle rubbing. At 0.5, 1, 3, 5, 12, 18, and 24 h, mice (n=4-5 mice/time point) were euthanized with CO2 inhalation. Blood was drawn immediately after death. Tissues, including paw skin, paw muscle, leg muscle, the sciatic nerve and lumbar DRG bilaterally were dissected quickly, immediately frozen in liquid nitrogen and stored at −80° C. until analyzed.

CIPN model = details: Hidaka et al. (2009); cited from earlier work
[8] = tested on: oxaliplatin-induced CIPN in C57BL/6J mice; assay: Treatment of oxaliplatin-induced CIPN, mechanical allodynia (von Frey test); type: in vivo, mouse
Text: (§1) Food and water were available ad libitum.
(§2) Results are expressed as mean±SEM. […] Non-compartmental analyses were employed.

[9] = tested on: vincristine-induced CIPN in C57BL/6J mice; assay: Treatment of vincristine-induced CIPN, mechanical allodynia (von Frey test); type: in vivo, mouse
Text: as §1, §2

[10] = tested on: paclitaxel-induced CIPN in C57/BL mice; assay: Treatment of established neuropathic pain in paclitaxel mouse model of CIPN, PWT (von Frey); type: in vivo; details: day 10, about 30 min after last application; paclitaxel 10 mg/kg ip daily x3; PS 8% hydrogel to both hind paws 3 times a day for 10 days, started 2 days after last paclitaxel
Description: The first doses were administered 2 days after the last administration of paclitaxel.
The data is expressed as percent change from the respective baseline value.

mice = assay: Safety of PS ointment during the CIPN treatment studies; type: in vivo, mouse; details: PS ointment thrice daily to hind paws for up to 22 days
Text: This finding is in keeping with the known safety profile of PS.

COX-1 = COX-1 (Homo sapiens, UniProt P23219); details: cited from earlier work
Chain of COX-1 (P23219 24-599): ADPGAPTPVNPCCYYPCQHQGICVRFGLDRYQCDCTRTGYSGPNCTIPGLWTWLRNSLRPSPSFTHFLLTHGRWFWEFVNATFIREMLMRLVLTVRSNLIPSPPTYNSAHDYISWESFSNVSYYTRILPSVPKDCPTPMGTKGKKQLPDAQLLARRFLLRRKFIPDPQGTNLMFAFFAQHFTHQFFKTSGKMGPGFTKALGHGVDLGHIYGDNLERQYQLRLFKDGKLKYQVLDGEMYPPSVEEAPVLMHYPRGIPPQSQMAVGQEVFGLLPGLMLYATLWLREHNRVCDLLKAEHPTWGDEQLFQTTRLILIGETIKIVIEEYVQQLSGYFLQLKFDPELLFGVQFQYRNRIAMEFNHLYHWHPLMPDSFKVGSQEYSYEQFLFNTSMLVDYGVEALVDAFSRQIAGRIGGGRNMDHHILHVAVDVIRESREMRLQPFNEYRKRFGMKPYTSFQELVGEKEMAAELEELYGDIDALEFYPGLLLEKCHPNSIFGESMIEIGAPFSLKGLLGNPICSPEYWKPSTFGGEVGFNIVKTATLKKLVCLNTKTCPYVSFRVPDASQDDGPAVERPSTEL

COX-2 = target: T1, COX-2 (Homo sapiens, UniProt P35354); details: cited from earlier work
T1 sequence (P35354 18-604): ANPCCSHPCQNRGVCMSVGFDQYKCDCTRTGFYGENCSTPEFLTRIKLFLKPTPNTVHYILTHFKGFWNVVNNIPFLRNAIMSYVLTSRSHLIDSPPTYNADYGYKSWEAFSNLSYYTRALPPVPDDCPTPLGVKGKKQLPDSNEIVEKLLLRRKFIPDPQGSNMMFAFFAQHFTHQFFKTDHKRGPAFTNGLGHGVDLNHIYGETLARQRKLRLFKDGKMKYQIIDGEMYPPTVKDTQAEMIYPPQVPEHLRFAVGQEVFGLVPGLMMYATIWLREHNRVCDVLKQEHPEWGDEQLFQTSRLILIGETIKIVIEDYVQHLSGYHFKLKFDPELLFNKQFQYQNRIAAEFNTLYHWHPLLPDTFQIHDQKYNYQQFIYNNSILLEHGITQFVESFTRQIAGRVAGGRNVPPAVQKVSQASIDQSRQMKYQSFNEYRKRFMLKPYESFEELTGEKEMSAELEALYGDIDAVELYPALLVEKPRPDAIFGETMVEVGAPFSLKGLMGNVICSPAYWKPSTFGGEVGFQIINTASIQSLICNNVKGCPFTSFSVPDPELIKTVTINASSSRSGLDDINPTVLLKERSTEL

[11] = mouse, in vivo, Distal half of the sciatic nerve
[12] = mouse, in vivo, Proximal half of the sciatic nerve, μM
[13] = 30 min after last dose, PS 8% ointment 3x/d for 2 wks
[14] = DRG (dorsal root ganglia), normal mice, PS 8% ointment topically 50 μl per hind paw
[15] = SN (sciatic nerve), normal mice, PS 8% ointment topically 50 μl per hind paw
[16] = leg muscle, normal mice, PS 8% ointment topically 50 μl per hind paw
[17] = paw muscle, normal mice, PS 8% ointment topically 50 μl per hind paw
[18] = paw skin, normal mice, PS 8% ointment topically 50 μl per hind paw
[19] = 30 min after last dose, mice with paclitaxel-induced PN, PS 8% ointment 3x/d for 2 wks

## CC(=O)O[C@H]1C(=O)[C@@]2(C)[C@H]([C@H](OC(=O)c3ccccc3)[C@]3(O)C[C@H](OC(=O)[C@H](O)[C@@H](NC(=O)c4ccccc4)c4ccccc4)C(C)=C1C3(C)C)[C@]1(OC(C)=O)CO[C@@H]1C[C@@H]2O [Paclitaxel, paclitaxel, reference compound]
[1]
  PWT, gm Mean ± SEM: 0.3 ± 0.01 gm
[2]; after paclitaxel treatment (4.5±0.24 sec before)
  cold allodynia score (acetone test), Mean±SEM: 7.1 ± 0.4 s
[3]; paclitaxel administered over 12 days, vs baseline
  reduction of mechanical allodynia scores by the chemotherapeutic: ~85%
[4]; day 10, paclitaxel group vs control
  mechanical allodynia score lower than solvent control: 53%
[4]
  mechanical allodynia score, mean±SEM: 0.7 ± 0.17 g
[5]; day 0, CIPN fully established after paclitaxel (1.83±0.14 g before paclitaxel)
  mechanical allodynia score, mean±SEM: 0.55 ± 0.05 g

## CSc1ccc(/C=C2/C(C)=C(CC(=O)O)c3cc(F)ccc32)cc1 [Sulindac sulfide, sulindac sulfide]
[6]; mouse, in vivo, 30 min
  Fold difference (distal vs proximal half of sciatic nerve): 4.5-8.5
[6]; [11]
  concentration at 30 min: 3.5 ± 1 µM
[6]; [12]
  concentration at 30 min: 0 µM

## CC1=C(CC(=O)O)c2cc(F)ccc2/C1=C\c1ccc(S(C)(=O)=O)cc1 [Sulindac sulfone, sulindac sulfone]
[6]; mouse, in vivo
  Distal half of the sciatic nerve, mean ± SEM: 0.9 ± 0.2 µM
  Proximal half of the sciatic nerve, μM, mean ± SEM: 0.2 ± 0.08 µM

## CC1=C(CC(=O)O)c2cc(F)ccc2/C1=C\c1ccc([S+](C)[O-])cc1 (stereo not drawn) [Sulindac, sulindac, reference compound]
[7]; all tissues except the sciatic nerve (higher) and DRG (equal), topical PS 8% ointment
  sulindac levels relative to those of PS: around 25%
[6]; [13]
  Fold difference (distal vs proximal half of sciatic nerve): 8.5
[6]; [11]
  concentration at 30 min: 3.4 ± 1.1 µM
[6]; [12]
  concentration at 30 min: 0.4 ± 0.03 µM

## CCN(CC)CC(=O)Nc1c(C)cccc1C [lidocaine, reference compound]
[5]; 5% lidocaine cream applied once to both hind paws 30 minutes before measurement
  PWT, g Mean ± SEM: 1.48 ± 0.12 g

## CC(C(=O)O)c1ccc(CC2CCCC2=O)cc1 (stereo not drawn) [loxoprofen sodium]
CIPN model
  reducing pain signalling in CIPN model: ineffective

## O=C1[O][Pt]2([NH][C@@H]3CCCC[C@H]3[NH]2)[O]C1=O [oxaliplatin]
[8]; at day 0, two study groups respectively
  reduction of allodynia score by the chemotherapeutic: 65% and 56%

## CC[C@]1(O)C[C@H]2CN(CCc3c([nH]c4ccccc34)[C@@](C(=O)OC)(c3cc4c(cc3OC)N(C=O)[C@H]3[C@@](O)(C(=O)OC)[C@H](OC(C)=O)[C@]5(CC)C=CCN6CC[C@]43[C@@H]65)C2)C1 [vincristine, reference compound]
[9]; day 0, after vincristine, all three groups
  mechanical allodynia score, mean±SEM: 0.7 ± 0.07 g
[9]; day -7 vs day 0, three vincristine groups
  reduction of mechanical allodynia score by the chemotherapeutic: 61%-65%

## phosphosulindac [PS]
[1]
  PWT, gm Mean ± SEM: 0.4 ± 0.01 gm
[10]
  PWT, % baseline Mean ± SEM: 102.55 ± 4.92 % baseline
[9]; PS treatment for 16 days
  increase of allodynia score compared to day 0: 114%
[9]; day 16, PS 8% ointment to hind paws 3x/day (vincristine alone group: no topical treatment)
  mechanical allodynia score, mean±SEM: 1.5 ± 0.09 g
[8]; after PS 8% ointment 3x/day (day 22) vs day -15 baseline
  mechanical allodynia score, mean±SEM: 1.8 ± 0.09 g
[7]; [14]
  AUC0-24 h: 4.5 µM·h
  Tmax: 18 h
  Cmax: 0.3 ± 0.1 µM
[7]; [15]
  AUC0-24 h: 12.0 µM·h
  T1/2, h: 57.4 h
  Tmax: 0.5 h
  Cmax: 0.9 ± 0.1 µM
[7]; blood after topical PS 8% ointment, limit of quantitation 0.1 μM for PS
  presence in the systemic circulation: no PS was detected
[7]; [16]
  AUC0-24 h: 171.6 µM·h
  T1/2, h: 20.6 h
  Tmax: 0.5 h
  Cmax: 35 ± 3.6 µM
[7]; [17]
  AUC0-24 h: 411.2 µM·h
  T1/2, h: 11.4 h
  Tmax: 0.5 h
  Cmax: 102 ± 4.6 µM
[7]; [18]
  AUC0-24 h, μM · h: 1,609.8 μM · h
  T1/2, h: 16.1 h
  Tmax: 0.5 h
  Cmax: 195 ± 5.3 µM
[7]; range over paw skin, paw muscle, leg muscle, topical PS 8% ointment
  t1/2 of the skin and the muscles: 11.4 to 20.6 h
[6]; [13]
  Fold difference (distal vs proximal half of sciatic nerve): 18.5 and 18.9
[6]; [19]
  Distal half of the sciatic nerve, mean ± SEM: 17 ± 5.1 µM
  Proximal half of the sciatic nerve, μM, mean ± SEM: 0.9 ± 0.3 µM
[2]; PS 5% for 15 days after induction of CIPN, day 15, vehicle 9.3±0.7
  cold allodynia score (acetone test), Mean±SEM: 3.1 ± 0.4 s
mice
  topical or systemic side effects: no topical or systemic side effects
COX-1
  inhibition of COX-1 expression: does not inhibit
COX-2
  inhibition of COX-2 expression: does not inhibit
[3]; day 0 (initiation of topical treatment, CIPN established)
  mechanical allodynia score, mean±SEM: 0.79 ± 0.08 g
[3]; day 5, PS 8% ointment to hind paws 3x/day
  mechanical allodynia score, mean±SEM: 1.17 ± 0.07 g
[3]; day 16, PS 8% ointment to hind paws 3x/day (paclitaxel only group: no topical treatment)
  mechanical allodynia score, mean±SEM: 2.49 ± 0.18 g
[4]; PS ointment, prevention study
  topical or systemic side effects: no topical or systemic side effects
[4]
  mechanical allodynia score, mean±SEM: 1.2 ± 0.15 g
[5]; PS 1.2% to both hind paws 3 times a day from day 0, measured day 14
  PWT, g Mean ± SEM: 0.98 ± 0.06 g
[5]; PS hydrogel 5% to both hind paws 3 times a day from day 0, measured day 14
  PWT, g Mean ± SEM: 1.24 ± 0.07 g
